Reference: US20140120577A1, “Metalloporphyrin Inducible Promoter” (CHR HANSEN A/S, priority 2011, published 2014)
Where two headings read alike, the source gives them in different places.

Columns and labels:
[1] = tested on: promoter of the ygƒCBA operon (Pheme); test: lacZ reporter (beta-galactosidase, Miller method) induction from pTCV Pheme-ygfC-lacZ plasmid in L. lactis MG1363; format: cell-based, Lactococcus lactis; details: for fold induction of beta-galactosidase: M17-glucose (1%)
Description: The pTCV-lac plasmid was used to transform the L. lactis strain MG1363. The transformants were selected on M17 plus glucose (0.5%) solid medium containing erythromycin 3 μg/ml. Colonies were purified and cells stored at −80° C.
Hemin solution is prepared at 20 mM in 50 mM NaOH, and aliquoted for storage at −20° C.; one tube is used for each assay and is then discarded.
PPIX-Ga solution is prepared at 10 mM in dimethylsulfoxide, and prepared in aliquots for storage at −20° C.; one tube is used for each assay and is then discarded.
The L. lactis cells carrying the plasmid are precultured overnight at 30° C. under non-aeration conditions in M17-glucose (0.5%) medium or BHI-Tris (note that BHI includes 0.2% glucose). The media are supplemented with 3 μg/ml erythromycin to maintain the plasmid.
The following day, the precultures are diluted 100-fold in new M17-glucose (1%) medium or BHI-Tris medium (0.5% final glucose concentration), and containing 3 μg/ml erythromycin. The cultures are grown at 30° C. either under non-aeration conditions (nonagitated cultures in full bottles), or under aeration conditions (cultures in conical flasks with baffles, one tenth full; agitation at 170 rpm in the presence of air). The growth is monitored by measuring the OD600.
The inducer is added either simultaneously with the bacteria, or during growth when the bacteria exit the lag phase (OD600=˜0.1 in M17-glucose [1%] medium, OD600=˜0.2 to 0.3 in BHI-Tris-glucose medium).
Cells are recovered from the cultures at OD600=1, and beta-galactosidase activity of the bacterial extracts is quantified by the Miller method (MILLER, Experiments in molecular genetics. Cold Spring Harbor Laboratory Press, Cold Spring Harbor, N.Y., 1972). In the presence of o-nitrophenyl-β-D-galactoside (ONPG), beta-galactosidase produces yellow-colored O-nitrophenol which can be assayed by measuring the optical density at 420 nm (A420); Beta-galactosidase activity of each sample is measured in Miller units by the following formula: 1000×A420/T(min)×V(ml)×A600. This formula measures activity in a cell sample, such that the value is standardized to the same cell biomass (given as the A600 value).

[2] = tested on: promoter of the ygƒCBA operon (Pheme); test: lacZ reporter (beta-galactosidase) induction in Streptococcus agalactiae NEM316; format: cell-based; details: for amount of inducer resulting in optimal induction: 1 or 10 μM tested; for induction (in words): BHI-Tris-glucose, non-aerated and aerated cultures; for induction of the promoter (in words): summary statement; for induction over background without hemin: M17-glucose, added at OD600 ~0.3, 1 hour
Description: The pTCV-lac plasmid was used to transform the Streptococcus agalactiae strain NEM316. The transformants were selected on solid M17-glucose (0.5%) medium containing erythromycin 3 μg/ml.
Hemin and PPIX-Ga solutions are prepared as described in Example 2 above.
The Streptococcus agalactiae cells carrying the plasmid are precultured overnight at 37° C. in M17-glucose (0.2%) and 3 μg/ml erythromycin, or in BHI-Tris medium supplemented with 3 μg/ml erythromycin.
The following day, the precultures are diluted 100-fold in new M17-glucose (1%) medium supplemented with 3 μg/ml erythromycin, or BHI-Tris-glucose (0.5% final concentration), and 3 μg/ml erythromycin. The cultures are grown at 37° C. either under non-aeration conditions or under aeration conditions and growth is monitored by measuring the OD600 as described above for Lactococcus lactis.
The inducer is added during growth when bacteria exit the lag phase (OD600=˜0.25 to 0.3).
Cells are recovered from the cultures at OD600=1, and bacterial beta-galactosidase activity is quantified as described in Example 2 above.

[3] = tested on: PhemeygƒC inducible system; test: PHEME-ygƒC-lacZ reporter induction in Lactobacillus casei (BETA-GLO test); format: cell-based; details: 10 μM hemin; MRS; static or aerated; 1 hour; endogenous background subtracted
Description: The pTCV-PhemeygƒC-lacZ plasmid described in Example 1 was used to transform a Lactobacillus casei laboratory strain. Transformants were selected on solid MRS medium containing erythromycin 3 μg/ml.
Hemin was prepared as described in Example 2 above.
The Lactobacillus casei cells carrying the pTCV-PhemeygƒC-lacZ plasmid were precultured overnight at 37° C. in MRS containing 3 μg/ml erythromycin. […] This was used as a control for background due to endogenous beta-galactosidase activity present in this species.
The following day, the precultures were diluted 20-fold in fresh MRS medium supplemented with 3 μg/ml erythromycin. The cultures were grown at 37° C. under static and aeration conditions and growth was monitored by measuring the OD600 as described above for Lactococcus lactis. The hemin inducer (10 μM final concentration) was added during growth once bacteria were in exponential phase (OD600=˜0.4).
Cells in mid exponential phase (OD600=˜0.4) were recovered from the cultures after 1 hour in the presence of the hemin inducer and the volumes were adjusted to a final fixed OD600 for the assay. In this experiment, bacterial beta-galactosidase activity is quantified using the commercially available BETA-GLO test (Promega), following manufacturer instructions.

[4] = tested on: ygƒCBA operon; details: 100 μM heme, cited from earlier work
[5] = BHI-Tris-glucose medium, non-aeration or aeration

Structure (SMILES)	fold induction of beta-galactosidase ([1]; non-aeration (static), 10 or 20 μM added during growth (OD600 ~0.1)) [fold]	fold induction of beta-galactosidase ([1]; non-aeration (static), 10 or 20 μM added simultaneously with the bacteria) [fold]	induction of the promoter (in words) ([1]; aeration and non-aeration conditions)	amount of inducer resulting in optimal induction [2, 5] [µM]	induction (in words) [2]	induction of the promoter (in words) [2]	fold induction of beta-galactosidase ([1]; aeration, inducer added during growth (OD600 ~0.1), cells recovered at OD600=1) [fold]	fold induction of beta-galactosidase ([1]; aeration, inducer added simultaneously with the bacteria, cells recovered at OD600=1) [fold]	increase of beta-galactosidase expression ([1]; depending on the heme concentration and the culture conditions)	amount of inducer resulting in optimal induction ([2]; M17-glucose medium, non-aeration and aeration) [µM]	induction over background without hemin ([2]; aeration conditions)	induction over background without hemin ([2]; non-aeration conditions)	induction of beta-galactosidase (in words) [3]	induction of the ygƒCBA operon ([4]; aeration conditions)	induction of the ygƒCBA operon ([4]; non-aeration conditions)
C=CC1=C(C)C2=[N+]3C1=Cc1c(C)c(C=C)c4[n]1[Ga-]31[n]3c(c(C)c(CCC(=O)O)c3=CC3=[N+]1C(=C4)C(C)=C3CCC(=O)O)=C2 (stereo not drawn) [Ga-PPIX, gallium-protoporphyrin IX]	120	90	efficient inducer	10	efficient	efficient inducers	–	–	–	–	–	–	–	–	–
C=CC1=C(C)c2cc3[n-]c(cc4[n-]c(cc5nc(cc1n2)C(C)=C5C=C)c(C)c4CCC(=O)O)c(CCC(=O)O)c3C.[Cl-].[Fe+3] [hemin]	–	–	–	1	efficient	efficient inducers	80	70	up to 100 fold	1	more than 150 fold	less than 50 fold	strong induction	up to 50 fold	up to 80 fold
